Experimental data taken from patent US12728119B2, “Pharmaceutical composition for preventing or treating cancer comprising 3-ketoacyl CoA thiolase inhibitor and carnitine acylcarnitine carrier inhibitor” (NATIONAL CANCER CENTER, priority 2020, dated 2026).

How the values were obtained:
Format in all cases: cell-based
[1] = system: A375 melanoma cell line; test: SRB analysis 3; settings: Gemcitabine 5 μM, 48 hours
Experimental: (§1) Through SRB analysis (n=3), the effect of triple combination treatment of a CAC inhibitor (KN510: omeprazole), ACAA inhibitor (KN713: trimetazidine) and other anticancer drug on cell growth in the cancer cells was analyzed. (see Table 11).
(§2) The SRB assay was performed as follows: each cell line (100 μl) was seeded into 96-well microtiter plates at densities ranging from 5,000 to 40,000 cells/well depending on the doubling time of each cell line. After 24 hours, drug (100 μl per well) was added to each well and the culture was incubated at 37° C. for 48 hours. Cells were then fixed in 50% TCA (50 μl per well) and plates were incubated at 4° C. for a minimum of 1 hour or a maximum of 3 hours. After that, the liquid was removed from the plate, then rinsed 5 times with water and dried for approximately 12-24 hours at room temperature (RT). After the fixed cells were stained with 0.4% SRB (100 μl per well) for 10 minutes at room temperature, the plates were washed 3 times with 1% glacial acetic acid and dried at room temperature for about 12-24 hours. SRB staining was dissolved in 10 mM Trizma base and absorbance was read at 515 nm. The effect of the drug was expressed as GI50 (50% growth inhibition), TGI (total growth inhibition) or LC50 (lethal concentration). GI50 is the maximum concentration at the moment of 50% inhibition of cell proliferation and IC50 is the concentration of the drug that inhibits the enzyme activity in vitro by 50% in this study.

[2] = system: A549 non-small cell lung cancer (NSCLC) cell line; test: SRB analysis 3; settings: Gemcitabine 2.5 μM, 48 hours
Experimental: as §1, §2

[3] = system: ACHN renal cancer cell line; test: SRB analysis 3; settings: Gemcitabine 2.5 μM, 48 hours
Experimental: as §1, §2

[4] = system: AGS gastric cancer cell line; test: SRB analysis 3; settings: Gemcitabine 2.5 μM, 48 hours
Experimental: as §1, §2

[5] = system: AsPC-1 pancreatic cancer (PDAC) cell line; test: SRB analysis 3; settings: Gemcitabine 2.5 μM, 48 hours
Experimental: as §1, §2

[6] = system: COLO-205 colon cancer cell line; test: SRB analysis 3; settings: Gemcitabine 2.5 μM, 48 hours
Experimental: as §1, §2

[7] = system: Caki-1 renal cancer cell line; test: SRB analysis 3; settings: Gemcitabine 2.5 μM, 48 hours
Experimental: as §1, §2

[8] = system: DU145 prostate cancer cell line; test: SRB analysis 3; settings: Gemcitabine 5 μM, 48 hours
Experimental: as §1, §2

[9] = system: H1975 non-small cell lung cancer (NSCLC) cell line; test: SRB analysis 3; settings: Gemcitabine 2.5 μM, 48 hours
Experimental: as §1, §2

[10] = system: HCT-116 colon cancer cell line; test: SRB analysis 3; settings: Gemcitabine 2.5 μM, 48 hours
Experimental: as §1, §2

[11] = system: Huh-7 liver cancer cell line; test: SRB analysis 3; settings: Gemcitabine 2.5 μM, 48 hours
Experimental: as §1, §2

[12] = system: MCF7 breast cancer cell line; test: SRB analysis 3; settings: Gemcitabine 2.5 μM, 48 hours
Experimental: as §1, §2

[13] = system: MDA-MB-231 breast cancer cell line; test: SRB analysis 3; settings: Gemcitabine 2.5 μM, 48 hours
Experimental: as §1, §2

[14] = system: MIA PaCa-2 pancreatic cancer (PDAC) cell line; test: SRB analysis 3; settings: Gemcitabine 2.5 μM, 48 hours
Experimental: as §1, §2

[15] = system: MKN45 gastric cancer cell line; test: SRB analysis 3; settings: MKN-45; Gemcitabine 2.5 μM; 48 hours
Experimental: as §1, §2

[16] = system: OVCAR-8 ovarian cancer cell line; test: SRB analysis 3; settings: Gemcitabine 2.5 μM, 48 hours
Experimental: as §1, §2

[17] = system: PC-3 prostate cancer cell line; test: SRB analysis 3; settings: Gemcitabine 5 μM, 48 hours
Experimental: as §1, §2

[18] = system: SK-OV-3 ovarian cancer cell line; test: SRB analysis 3; settings: Gemcitabine 2.5 μM, 48 hours
Experimental: as §1, §2

[19] = system: SK-hep-1 liver cancer cell line; test: SRB analysis 3; settings: Gemcitabine 2.5 μM, 48 hours
Experimental: as §1, §2

[20] = system: UACC62 melanoma cell line; test: SRB analysis 3; settings: Gemcitabine 5 μM, 48 hours
Experimental: as §1, §2

[21] = system: T87G glioblastoma (GBM) cell line; test: SRB analysis 3; settings: Gemcitabine 5 μM, 48 hours
Experimental: as §2, with “Through SRB analysis (n=3), the effect of triple combination treatment of a CAC inhibitor ([…] inhibitor (KN713: trimetazidine) and other anticancer drug on cell growth in the cancer cells was analyzed. (see Table 11). The” for “The”, “nm.” for “nm. The effect of the drug was expressed as GI50 (50% growth inhibition), TGI (total growth inhibition) or LC50 (lethal concentration). GI50 is the maximum concentration at the moment of 50% inhibition of cell proliferation and IC50 is the concentration of the drug that inhibits the enzyme activity in vitro by 50% in this study.”

[22] = system: U87MG glioblastoma (GBM) cell line; test: SRB analysis 3; settings: Gemcitabine 5 μM, 48 hours
Experimental: as §2, with “Through SRB analysis (n=3), the effect of triple combination treatment of a CAC inhibitor ([…] inhibitor (KN713: trimetazidine) and other anticancer drug on cell growth in the cancer cells was analyzed. (see Table 11). The” for “The”, “nm.” for “nm. The effect of the drug was expressed as GI50 (50% growth inhibition), TGI (total growth inhibition) or LC50 (lethal concentration). GI50 is the maximum concentration at the moment of 50% inhibition of cell proliferation and IC50 is the concentration of the drug that inhibits the enzyme activity in vitro by 50% in this study.”

[23] = system: cancer cells; test: SRB analysis 3, triple combination, summary over cancer panels
Experimental: as §1, §2

Nc1ccn([C@@H]2O[C@H](CO)[C@@H](O)C2(F)F)c(=O)n1 [Gemcitabine]
cell growth (Control = 100) [1]: 25.12
cell growth (Control = 100) [2]: 19.65
cell growth (Control = 100) [3]: −47.9775
cell growth (Control = 100) [4]: 15.95
cell growth (Control = 100) [5]: 20.83
cell growth (Control = 100) [6]: 6.029
cell growth (Control = 100) [7]: 28.94
cell growth (Control = 100) [8]: 45.33
cell growth (Control = 100) [9]: 16.14
cell growth (Control = 100) [10]: 3.788
cell growth (Control = 100) [11]: 33.13
cell growth (Control = 100) [12]: 12.31
cell growth (Control = 100) [13]: 65.05
cell growth (Control = 100) [14]: 25.9
cell growth (Control = 100) [15]: 36.14
cell growth (Control = 100) [16]: 21.24
cell growth (Control = 100) [17]: 48.0
cell growth (Control = 100) [18]: 24.21
cell growth (Control = 100) [19]: 22.18
cell growth (Control = 100) [20]: 31.60
cell growth (Control = 100) [21]: 53.69
cell growth (Control = 100) [22]: 3.67
Positive/Negative (triple combination of KN510, KN713 and the listed anticancer drug) ([23]; Breast Cancer, BT-549, MDA MB 231): negative
Positive/Negative (triple combination of KN510, KN713 and the listed anticancer drug) ([23]; Colon Cancer, HT-29, COLO-205): negative
Positive/Negative (triple combination of KN510, KN713 and the listed anticancer drug) ([23]; GBM, U87MG, T87G): negative
Positive/Negative (triple combination of KN510, KN713 and the listed anticancer drug) ([23]; Liver Cancer, SNU-449, Huh-7): negative
Positive/Negative (triple combination of KN510, KN713 and the listed anticancer drug) ([23]; NSCLC, A549, H522): negative
Positive/Negative (triple combination of KN510, KN713 and the listed anticancer drug) ([23]; Ovarian Cancer, SK-OV-3, OVCAR-3): negative
Positive/Negative (triple combination of KN510, KN713 and the listed anticancer drug) ([23]; PDAC, MIA PaCa-2, PANC-1): Positive
Positive/Negative (triple combination of KN510, KN713 and the listed anticancer drug) ([23]; Prostate Cancer, PC-3, DU-145): Positive
Positive/Negative (triple combination of KN510, KN713 and the listed anticancer drug) ([23]; Renal cell carcinoma, ACHN, CAKI-1): negative
Positive/Negative (triple combination of KN510, KN713 and the listed anticancer drug) ([23]; Stomach Cancer, MKN-28, AGS): negative
Positive/Negative (triple combination of KN510, KN713 and the listed anticancer drug) ([23]; melanoma, UACC62, A375): Positive
